Structures are written as SMILES. Activity calls are given as the source filed them. The calls are words filed in the database; no cut-off is given here.

Chain of Stimulator of interferon genes protein (Homo sapiens) (Q86WV6 whole entry): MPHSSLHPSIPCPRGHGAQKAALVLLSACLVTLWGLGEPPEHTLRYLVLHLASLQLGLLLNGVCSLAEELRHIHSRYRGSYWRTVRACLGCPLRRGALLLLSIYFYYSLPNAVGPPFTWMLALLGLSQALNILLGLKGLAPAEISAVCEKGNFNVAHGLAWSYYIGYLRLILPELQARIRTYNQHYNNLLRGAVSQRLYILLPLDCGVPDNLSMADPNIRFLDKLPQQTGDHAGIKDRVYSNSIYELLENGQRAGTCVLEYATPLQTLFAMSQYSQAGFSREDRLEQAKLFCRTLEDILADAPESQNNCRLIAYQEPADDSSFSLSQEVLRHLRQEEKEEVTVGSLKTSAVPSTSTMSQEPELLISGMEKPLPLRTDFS

One assay concerns the target Stimulator of interferon genes protein (Homo sapiens) (UniProt Q86WV6). Nature of the assay: Activation of human STING expressed in monocytes co-expressing IFN assessed as alkaline phosphatase secretion in presence of adenosine deaminase inhibitor erytftro-9-(2-hydroxy-3-nonyl) adenine by SEAP reporter gene assay. The format is cell-based.
For `CCOc1ncnc2c1ncn2[C@@H]1O[C@H](CO)[C@@H](O)[C@H]1O`, the result was Active.

The next assay shares this target. Nature of the assay: Activation of human STING expressed in monocytes co-expressing IFN assessed as alkaline phosphatase secretion in presence of adenosine kinase inhibitor 5-iodotubercidin by SEAP reporter gene assay. The format is cell-based.
Consider `CCOc1ncnc2c1ncn2[C@@H]1O[C@H](CO)[C@@H](O)[C@H]1O`, for which the outcome was inactive.

The target is the same in another assay. Nature of the assay: Activation of human STING expressed in monocytes co-expressing IFN assessed as alkaline phosphatase secretion by SEAP reporter gene assay. The format is cell-based. For orientation: Reporter assays use an easily measured gene product as a stand-in for the process of interest.
For the molecule `CN(C)CCNc1ncnc2c1ncn2[C@@H]1O[C@H](CO)[C@@H](O)[C@H]1O`, the result was Active.
Still for that read-out and setting: next, `CN(C)/C=N/c1ncnc2[nH]cnc12`: “inactive”.
On the same count and under the same terms, the entry for `OC[C@H]1O[C@@H](n2cnc3c(OCC(F)F)ncnc32)[C@H](O)[C@@H]1O` is “Active”.
Consider `CN(C)/C=N/c1ncnc2c1ncn2[C@H]1C[C@H](O)[C@@H](CO)O1`, for which the outcome was inactive.
On the same count and under the same terms, next, `CC(C)Oc1ncnc2c1ncn2[C@@H]1O[C@H](CO)[C@@H](O)[C@H]1O`: “inactive”.
Consider `CCOc1ncnc2[nH]cnc12`, for which the result was inactive.
On the same count and under the same terms, next, `CCCCC(=O)OC[C@H]1O[C@@H](n2cnc3c(OCC)ncnc32)[C@H](OC(=O)CCCC)[C@@H]1OC(=O)CCCC`: “Active”; `OC[C@H]1O[C@@H](n2cnc3c(OCc4ccccc4)ncnc32)[C@H](O)[C@@H]1O`: “inactive”.
`CN(C)/C=N/c1ccn([C@@H]2O[C@H](CO)[C@@H](O)[C@H]2O)c(=O)n1`: the result was inactive.
As for `CN(C)/C=N/c1nc2c(ncn2[C@@H]2O[C@H](CO)[C@@H](O)[C@H]2O)c(=O)[nH]1`, the result was inactive.
As for `CCOc1ncnc2c1ncn2[C@@H]1O[C@H](COP(=O)(N[C@@H](C)C(=O)OC(C)C)Oc2ccccc2)[C@@H](O)[C@H]1O` (some centres undefined), the result was Active.
On to `CCOc1nc(N)nc2c1ncn2[C@@H]1O[C@H](CO)[C@@H](O)[C@H]1O`, for which the outcome was inactive.
Consider `CCOc1ncnc2c1ncn2[C@@H]1O[C@H](COC(=O)[C@@H](N)C(C)C)[C@@H](O)[C@H]1O`, for which the outcome was Active.
`CC(C)CNc1ncnc2c1ncn2[C@@H]1O[C@H](CO)[C@@H](O)[C@H]1O`: the outcome was Active.
On the same count and under the same terms, the entry for `CCCCC(=O)OC[C@H]1O[C@@H](n2cnc3c(OCC)ncnc32)[C@H](O)[C@@H]1O` is “Active”; for `CCCOc1ncnc2c1ncn2[C@@H]1O[C@H](CO)[C@@H](O)[C@H]1O` it is “Active”.
Same read-out and setting: next, `OC[C@H]1O[C@@H](n2cnc3c(NCc4ccccc4)ncnc32)[C@H](O)[C@@H]1O`: “Active”; `CCOc1ncnc2c1ncn2[C@@H]1O[C@H](COC(=O)C(C)C)[C@@H](OC(=O)C(C)C)[C@H]1OC(=O)C(C)C`: “Active”; `COc1ncnc2c1ncn2[C@@H]1O[C@H](CCl)[C@@H](O)[C@H]1O`: “inactive”.
On the same count and under the same terms, next, `CN(C)/C=N/c1ncnc2c1ncn2[C@@H]1O[C@H](CO)[C@@H](O)[C@H]1O`: “Active”.
With `OC[C@H]1O[C@@H](n2cnc3c(NCc4ccc(-c5ccccc5)cc4)ncnc32)[C@H](O)[C@@H]1O`, the outcome was Active.
Consider `COCCNc1ncnc2c1ncn2[C@@H]1O[C@H](CO)[C@@H](O)[C@H]1O`, for which the result was Active.
On the same count and under the same terms, next, `CCNc1ncnc2c1ncn2[C@@H]1O[C@H](CO)[C@@H](O)[C@H]1O`: “Active”; `OC[C@H]1O[C@@H](n2cnc3c(OCC(F)(F)F)ncnc32)[C@H](O)[C@@H]1O`: “Active”; `CCOc1ncnc2c1ncn2[C@H]1C[C@H](O)[C@@H](CO)O1`: “inactive”.
For `CCOc1ncnc2c1ncn2[C@@H]1O[C@H](CO)[C@@H](O)[C@H]1O`, the result was Active.
Turning to `C=CCNc1ncnc2c1ncn2[C@@H]1O[C@H](CO)[C@@H](O)[C@H]1O`, the result was Active.

For the origin of these results see ChEMBL document CHEMBL4602626, “Structure activity relationship, 6-modified purine riboside analogues to activate hSTING, stimulator of interferon genes” (Bioorg Med Chem Lett, 2020).
